Results: the NIST ThermoML archive (doi:10.1016/j.tca.2014.03.019)

Experiments:
[1] = Crystal; for vapor or sublimation pressure: Transpiration method; for Normal melting temperature: DTA
[2] = Molar enthalpy of transition or fusion; conditions: Crystal; DSC

CC(=O)Nc1ccccc1C(=O)O [2-acetamidobenzoic acid]
[1]
Conditions | vapor or sublimation pressure [kPa]
344.7 K | 1.66e-05
351.3 K | 3.37e-05
357.3 K | 5.58e-05
363.5 K | 0.000111
363.8 K | 0.000116
366.2 K | 0.000138
369.7 K | 0.000235
371 K | 0.000243
373.5 K | 0.000289
377.4 K | 0.000555
380 K | 0.000571
383.8 K | 0.000948
387.2 K | 0.00117
390.4 K | 0.00152
393.5 K | 0.00198

Conditions | Molar enthalpy of transition or fusion [kcal/mol] | Normal melting temperature [°C]
[1] | – | 185.2
[2] | 11.8 | –

CC(=O)Nc1ccc(C(=O)O)cc1 [4-acetamidobenzoic acid]
[1]
Conditions | vapor or sublimation pressure [kPa]
395 K | 1.43e-05
398.2 K | 2.1e-05
398.5 K | 2.09e-05
402.5 K | 2.92e-05
405.5 K | 3.48e-05
409.1 K | 5.24e-05
412.1 K | 6.72e-05
415.3 K | 0.0001
418.9 K | 0.000126
422.1 K | 0.000193
425 K | 0.000227
428.5 K | 0.000352
431.7 K | 0.000393
436.2 K | 0.000775
440 K | 0.000934

Conditions | Molar enthalpy of transition or fusion [kcal/mol] | Normal melting temperature [°C]
[1] | – | 262.1
[2] | 8.17 | –

CC(=O)Nc1cccc(C(=O)O)c1 [3-(acetylamino)benzoic acid]
[1]
Conditions | vapor or sublimation pressure [kPa]
407.2 K | 2.67e-05
410.9 K | 4.67e-05
414.1 K | 5.62e-05
416.6 K | 6.27e-05
420.9 K | 0.000102
423.6 K | 0.000114
426.8 K | 0.000148
427.3 K | 0.000187
430.6 K | 0.000246
433 K | 0.000315
434.8 K | 0.000374
436.1 K | 0.000403
440.1 K | 0.00051
442.9 K | 0.000663

Conditions | Molar enthalpy of transition or fusion [kcal/mol] | Normal melting temperature [°C]
[1] | – | 245.1
[2] | 9.42 | –
